These are literature values, as cited in patent publication US8691302B2, “Peptide-containing seasoning” (Kikkoman Corporation, priority 2008, dated 2014).

The conditions of data set [1]: reported in Non-patent Reference 1.
The target in data set [2] is angiotensin converting enzyme (Homo sapiens, UniProt P12821). The following applies: reported in Non-patent Reference 1.
Sequence of angiotensin converting enzyme (P12821 30-1306, species assumed): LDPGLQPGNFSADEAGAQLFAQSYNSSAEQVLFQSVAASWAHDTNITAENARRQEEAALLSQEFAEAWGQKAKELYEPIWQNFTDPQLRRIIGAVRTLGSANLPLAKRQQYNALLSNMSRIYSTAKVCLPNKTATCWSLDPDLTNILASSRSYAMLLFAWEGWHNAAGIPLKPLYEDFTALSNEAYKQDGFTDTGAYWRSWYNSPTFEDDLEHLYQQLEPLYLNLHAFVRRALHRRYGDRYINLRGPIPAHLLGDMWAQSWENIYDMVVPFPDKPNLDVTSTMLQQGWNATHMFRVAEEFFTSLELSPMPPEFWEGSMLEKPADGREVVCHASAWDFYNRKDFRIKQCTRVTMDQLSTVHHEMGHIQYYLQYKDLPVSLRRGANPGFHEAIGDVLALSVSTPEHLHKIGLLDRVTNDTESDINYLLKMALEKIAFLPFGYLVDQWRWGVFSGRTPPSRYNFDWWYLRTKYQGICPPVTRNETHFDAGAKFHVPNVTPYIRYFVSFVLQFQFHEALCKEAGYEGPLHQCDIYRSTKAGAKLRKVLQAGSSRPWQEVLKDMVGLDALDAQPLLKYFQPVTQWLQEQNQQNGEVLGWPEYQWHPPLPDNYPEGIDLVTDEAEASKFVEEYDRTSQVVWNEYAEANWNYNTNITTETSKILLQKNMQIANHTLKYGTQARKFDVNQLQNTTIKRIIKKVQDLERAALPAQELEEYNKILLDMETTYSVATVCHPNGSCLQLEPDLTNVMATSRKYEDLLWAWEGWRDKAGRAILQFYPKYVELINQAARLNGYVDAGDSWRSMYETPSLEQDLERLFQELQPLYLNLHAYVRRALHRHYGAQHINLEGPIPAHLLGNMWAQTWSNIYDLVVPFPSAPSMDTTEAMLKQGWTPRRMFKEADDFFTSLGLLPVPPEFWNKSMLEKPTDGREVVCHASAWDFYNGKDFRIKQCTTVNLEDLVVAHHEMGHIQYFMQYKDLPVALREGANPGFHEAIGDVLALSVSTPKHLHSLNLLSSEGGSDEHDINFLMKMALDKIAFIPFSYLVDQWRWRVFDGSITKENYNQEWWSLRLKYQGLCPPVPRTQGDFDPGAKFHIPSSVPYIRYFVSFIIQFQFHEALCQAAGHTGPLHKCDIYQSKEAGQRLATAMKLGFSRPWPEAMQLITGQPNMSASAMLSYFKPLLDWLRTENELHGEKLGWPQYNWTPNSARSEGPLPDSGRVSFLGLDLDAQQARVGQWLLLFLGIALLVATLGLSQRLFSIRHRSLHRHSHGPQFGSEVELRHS

Take Gly-Tyr: in data set [1], the hypotensive activity result is reported as “a hypotensive activity”. The “angiotensin converting enzyme inhibitory activity” value in data set [2] is given as “have an angiotensin converting enzyme inhibitory activity”.
Regarding Ser-Tyr, the hypotensive activity entry in data set [1] is listed as “a hypotensive activity”. The “angiotensin converting enzyme inhibitory activity” value in data set [2] is on record as “have an angiotensin converting enzyme inhibitory activity”.
